As a reminder, the inhibition is the share of the control response that was lost under treatment.

The subject of one test is L. crescens. It is filed as cell-based, Liberibacter crescens. The conditions noted are these: control, at each tested level.
Test [1] has as its system CLas. The format is in vivo, Candidatus Liberibacter asiaticus in citrus plants. The following applies: after twenty-eight days; soil drench, 10 Brix; p<0.05.
In test [2] the test system is CLas. It is filed as in vivo, Candidatus Liberibacter asiaticus in citrus plants. The following applies: forty-eight hours after treatment; soil drench.

In the test on L. crescens, `CN(C)[C@@H]1C(=O)C(C(N)=O)=C(O)[C@@]2(O)C(=O)C3=C(O)c4c(O)cccc4[C@@](C)(O)[C@H]3[C@H](O)[C@@H]12` [Oxytetracyclin] showed an inhibition of 100%.
Turning to `[H]/N=C(/N)N[C@H]1[C@H](O)[C@@H](O)[C@H](O[C@@H]2O[C@@H](C)[C@](O)(C=O)[C@H]2O[C@@H]2O[C@@H](CO)[C@H](O)[C@@H](O)[C@@H]2NC)[C@@H](N/C(N)=N\[H])[C@@H]1O` [Streptomycin], the “number of copies of CLas genes, change from the initial value” in the test with CLas [1] is reported as “significant reduction”. Also, the “change in PMA titer (positive = reduction in live bacteria)” value with CLas [2] is reported as “positive values”.

For the origin of these results see patent publication US12245597B2 (priority 2017, dated 2025).
